Reference: paper PMC10424183, “Determination of Ligand-Binding Affinity (Kd) Using Transverse Relaxation Rate (R2) in the Ligand-Observed ^1H NMR Experiment and Applications to Fragment-Based Drug Discovery” (Journal of Medicinal Chemistry, 2023)
Like-named read-outs stand apart in the source and are kept apart here.

Columns and labels:
[1] = target: T1, CRBN/DDB1 complex (Homo sapiens, UniProt Q96SW2); test: FP based biochemical assay; assay type: binding; conditions: top 10 fragments
T1 construct: made in house
Description: To determine the accuracy of Kd measured using the R2KD assay, we tested seven small molecule ligands (Figure 4) against three protein targets (BCL6, CRBN/DDB1 complex, and ERAP1) and compared their Kd values from the R2KD assay with known Ki values (Table 1) obtained in biochemical binding assays[15],[17],[18] or Kd value from the SPR binding assay.[19] We found good agreements between the Kd values and the Ki values, with most of them less than two-fold difference from those determined from biochemical or biophysical assays. […] We found the assay setup to be simple and positive controls unnecessary, making the approach suitable for new and challenging targets.
Here, we present how we used the R2KD assay to triage fragment hits against the CRBN/DDB1 complex. The CRBN/DDB1 complex is part of the E3 ligase system, with its thalidomide-binding domain (TBD) pocket critical for recruiting its substrate protein.[20] A fragment library, composed of around 1000 compounds, was screened using R2 relaxation edited ^1H-NMR experiments, with 19 fragments subsequently identified as competitive hits for the TBD pocket. The R2 values of these fragments were measured at two ligand concentrations (200 and 50 μM) against 2 μM of the CRBN/DDB1 complex. This enabled preliminary ranking of hits. The hits with larger R2 differences rank higher. […] We then measured the Kd values of the top 10 fragments using R2KD assay and confirmed the ranking order (Table 2). We also determined IC50 of the top 10 fragments using a FP based biochemical assay.[17]

[2] = target: T1, CRBN/DDB1 complex; test: R2 values of fragment hits at two ligand concentrations (preliminary ranking); assay type: binding; conditions: 2 μM CRBN/DDB1 complex; for average R2, compound at 50 μM: 50 μM ligand; for average R2, compound at 200 μM: 200 μM ligand; for average R2, differences: R2 at 50 μM minus R2 at 200 μM
Experimental: (§1) Here, we present how we used the R2KD assay to triage fragment hits against the CRBN/DDB1 complex. The CRBN/DDB1 complex is part of the E3 ligase system, with its thalidomide-binding domain (TBD) pocket critical for recruiting its substrate protein.[20] […] The R2 values of these fragments were measured at two ligand concentrations (200 and 50 μM) against 2 μM of the CRBN/DDB1 complex. This enabled preliminary ranking of hits. The hits with larger R2 differences rank higher. […] We also determined IC50 of the top 10 fragments using a FP based biochemical assay.[17]
(§2) The T2 relaxation experiment was acquired using pulse program CPMG with 3-9-19 pulse sequence with gradients incorporated to suppress the water signal.[22] Extra water suppression was achieved by adding presaturation during D1. The spin-echo period (delay-180°-delay) was set to 1 msec (d20 is 500 μs), and the relaxation delay (d1) was set to 10 s. The pseudo-2D experiment contained nine slices with spin-echo period repeated the following times: 4, 20, 100, 200, 300, 500, 700, 1000, and 2000.

[3] = target: T1, CRBN/DDB1 complex; test: R2KD ligand-observed 1H NMR assay (Kd from transverse relaxation rate R2); assay type: binding
Experimental: (§3) 10 samples were prepared: samples 1–8 containing increasing ligand concentration (maintaining constant protein concentration); sample 9 and 10 containing only ligands at two different concentrations (protein absent). These two samples served as control samples to obtain the R2 values of free ligand. The final percentage of DMSO-d6 in all samples were identical to minimize possible impacts of DMSO-d6.
as §1, §2
Nonlinear regression analysis was carried out using GraphPad Prism 9.2.0. […] Three parameters: P, α, and Kd were in the equation with the initial value set at 1. […] CIs of parameters was calculated at 95% level using Asymmetrical (Profile-likelihood) CI.

[4] = target: T1, CRBN/DDB1 complex; conditions: known Ki from biochemical binding assay, Δ39CRBN/ΔBPBDDB1 complex; cited from earlier work
[5] = target: T2, BCL6 BTB (Homo sapiens, UniProt P41182); test: R2KD ligand-observed 1H NMR assay (Kd from transverse relaxation rate R2); assay type: binding
T2 construct: made in house
Experimental: (§4) Four aqueous stock solutions were prepared in Eppendorf Safe-Lock tubes (Cat no. 0030120094) by manual pipetting: (1) ligand aqueous stock solution was prepared by adding 50 mM ligand DMSO-d6 solution to aqueous buffer; (2) dimethyl sulfoxide (DMSO) aqueous stock solution was prepared by adding the same volume of DMSO-d6 as ligand DMSO-d6 solution to aqueous buffer; (3) protein aqueous stock solution was prepared by adding protein solution to aqueous buffer; and (4) aqueous solution was the buffer used in the assay.
as §3, with “Samples were prepared on a Bruker SamplePro-Tube liquid handler by mixing different volume of the four aqueous stocks in 96-well microplates (Greiner 650201) and then transferred to 3 mm NMR tubes (Figure 2). 10 samples” for “10 samples”
The R2 values of four aromatic ^1H-NMR signals (Figure 3B) were experimentally determined (Figure 3C) and (R2,obs – R2F) * LT values were calculated using Excel and used as y-axis values in Prism, while ligand concentrations were plotted as the x-axis values (Figure 3D). All four NMR peaks were used to fit a global Kd with non-linear regression using a customized equation (see Experimental Section), while α values were fitted as an individual parameter for each peak (Figure 3E) as α values differ depending on the individual proton’s environment. While it was possible to fit Kd values using individual NMR peaks and then average the values (Figure 3F), we found using a global fitting algorithm increased robustness of curve fitting and better accommodated outliers in the data. The goodness of fit was judged by 95% confidence interval (CI) (profile likelihood) values and R squared value. The global Kd obtained here is close to the Ki value (54 vs 50 μM) although from our accuracy study, the differences can be larger (see section “Assay Accuracy”).
NMR data were collected at 298 K on a Bruker AVANCE NEO 600 MHz spectrometer, equipped with 5 mm TCI CryoProbe using Bruker Topspin 4.0. The T2 relaxation experiment was acquired using pulse program CPMG with 3-9-19 pulse sequence with gradients incorporated to suppress the water signal.[22] Extra water suppression was achieved by adding presaturation during D1. The spin-echo period (delay-180°-delay) was set to 1 msec (d20 is 500 μs), and the relaxation delay (d1) was set to 10 s. The pseudo-2D experiment contained nine slices with spin-echo period repeated the following times: 4, 20, 100, 200, 300, 500, 700, 1000, and 2000. The T2 relaxation experiment was processed using MestReNova 14.1, and Data Analysis Module of MestReNova was used to obtain integrals of individual ^1H-NMR signals, which were used to calculate R2 with equation I = I0exp (−tR2).
Nonlinear regression analysis was carried out using GraphPad Prism 9.2.0. Equation 12 was defined in user-defined equations as: Y = 0.5α*((X + Kd + P) −sqrt((sqr(X + Kd + P)) – 4*P*X)) where Y was calculated from eq 13 and X is the total ligand concentration. Three parameters: P, α, and Kd were in the equation with the initial value set at 1. In the default constraints setting, P was “constant equal to” the total protein concentration, Kd was “shared value for all data sets”, and α was “must be greater than […]”. CIs of parameters was calculated at 95% level using Asymmetrical (Profile-likelihood) CI.

[6] = target: BCL6 BTB domain; set-up: method as in PMID 35657291; conditions: known Ki from TR-FRET binding assay; cited from earlier work
[7] = target: T3, ERAP1 (Homo sapiens, UniProt Q9NZ08); set-up: method as in PMID 31841350; conditions: known Ki from biochemical binding assay; cited from earlier work
T3 construct: made in house

[8] = target: T3, ERAP1; test: R2KD ligand-observed 1H NMR assay (Kd from transverse relaxation rate R2); assay type: binding; conditions: repeated three times (average)
Experimental: as §4
Samples were prepared on a Bruker SamplePro-Tube liquid handler by mixing different volume of the four aqueous stocks in 96-well microplates (Greiner 650201) and then transferred to 3 mm NMR tubes (Figure 2). 10 samples were prepared: samples 1–8 containing increasing ligand concentration (maintaining constant protein concentration); sample 9 and 10 containing only ligands at two different concentrations (protein absent). These two samples served as control samples to obtain the R2 values of free ligand. […]
Nonlinear regression analysis was carried out using GraphPad Prism 9.2.0. Equation 12 was defined in user-defined equations as: Y = 0.5α*((X + Kd + P) −sqrt((sqr(X + Kd + P)) – 4*P*X)) where Y was calculated from eq 13 and X is the total ligand concentration. […] CIs of parameters was calculated at 95% level using Asymmetrical (Profile-likelihood) CI.

[9] = fragment hit triage, top 10 fragments, read-out: R2KD assay Kd
[10] = R2KD assay, Δ39CRBN/ΔBPBDDB1 complex, repeated three times (average), read-out: Kd
[11] = R2KD assay, repeated three times (average), read-out: Kd

T1 sequence (Q96SW2 40-442 limits assumed, species assumed, one chain of several): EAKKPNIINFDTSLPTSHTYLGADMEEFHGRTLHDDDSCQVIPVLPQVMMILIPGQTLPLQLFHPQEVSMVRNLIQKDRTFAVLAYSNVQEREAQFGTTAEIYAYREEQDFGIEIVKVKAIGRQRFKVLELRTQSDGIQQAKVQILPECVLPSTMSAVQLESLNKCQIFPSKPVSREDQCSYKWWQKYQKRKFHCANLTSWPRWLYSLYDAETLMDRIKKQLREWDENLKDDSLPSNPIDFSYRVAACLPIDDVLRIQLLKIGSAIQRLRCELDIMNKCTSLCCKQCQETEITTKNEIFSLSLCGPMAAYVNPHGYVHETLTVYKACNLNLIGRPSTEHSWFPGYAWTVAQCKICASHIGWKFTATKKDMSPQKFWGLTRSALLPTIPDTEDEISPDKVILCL
T3 sequence (Q9NZ08 whole entry, species assumed): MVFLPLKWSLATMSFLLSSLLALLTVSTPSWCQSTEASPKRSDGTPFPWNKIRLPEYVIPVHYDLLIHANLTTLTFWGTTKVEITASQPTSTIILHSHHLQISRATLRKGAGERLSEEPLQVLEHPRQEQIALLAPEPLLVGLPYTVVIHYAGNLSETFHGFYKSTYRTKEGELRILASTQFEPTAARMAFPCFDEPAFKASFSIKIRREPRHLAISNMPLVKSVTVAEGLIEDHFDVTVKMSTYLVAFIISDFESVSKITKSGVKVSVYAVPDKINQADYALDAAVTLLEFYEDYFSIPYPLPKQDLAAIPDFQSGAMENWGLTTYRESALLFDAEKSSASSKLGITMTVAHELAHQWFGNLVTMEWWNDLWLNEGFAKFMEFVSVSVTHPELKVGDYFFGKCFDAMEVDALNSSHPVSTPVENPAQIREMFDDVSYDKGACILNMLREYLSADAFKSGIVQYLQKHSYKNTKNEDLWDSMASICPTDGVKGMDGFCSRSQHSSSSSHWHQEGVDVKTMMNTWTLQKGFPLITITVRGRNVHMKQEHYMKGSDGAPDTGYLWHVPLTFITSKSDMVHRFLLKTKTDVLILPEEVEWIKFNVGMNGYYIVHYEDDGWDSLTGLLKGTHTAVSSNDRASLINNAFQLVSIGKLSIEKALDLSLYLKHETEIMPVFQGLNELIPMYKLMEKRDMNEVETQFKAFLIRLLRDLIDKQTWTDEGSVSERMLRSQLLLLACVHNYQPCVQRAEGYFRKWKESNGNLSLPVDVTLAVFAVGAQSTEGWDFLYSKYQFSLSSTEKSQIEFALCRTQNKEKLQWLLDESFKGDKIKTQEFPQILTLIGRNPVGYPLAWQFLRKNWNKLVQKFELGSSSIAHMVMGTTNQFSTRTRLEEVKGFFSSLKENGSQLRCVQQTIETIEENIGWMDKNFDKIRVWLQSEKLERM

Compound | IC50 [1] [µM] | average R2, compound at 50 μM [2] | average R2, compound at 200 μM [2] | average R2, differences [2] | Kd [3, 9] [µM] | further results
COC(=O)c1ccc2c(c1)NC(=O)CO2 [CCT240569] | 153 | 7.2 | 2.6 | 4.6 | 72 | Ki [4]: 140 µM; Kd [3, 10]: 88 µM
CC[C@H](O)Cn1c(=O)n(C)c2ccc(Nc3ccnc(Cl)c3C#N)cc21 [CCT367090] |  |  |  |  |  | Kd [5, 11]: 7 µM; Ki [6]: 4 µM
O=C(O)c1cccc(S(=O)(=O)Nc2ccccc2N2CCCCC2)c1 [CCT369304] |  |  |  |  |  | Ki [7]: 33 µM; Kd [8]: 196 µM
O=c1ccn(Cc2ccccc2)c(=O)[nH]1 [CCT240207] | 168 | 3.4 | 1.2 | 2.2 | 86 | 
Cc1nccc(Nc2cnn(CCO)c2)c1C#N [CCT365133] |  |  |  |  |  | Kd ([5]; 5 μM BCL6, average of Peaks 1-4, unit inferred, read-out: Kd, average of individual peak fits): 61 µM; Kd ([5]; 5 μM BCL6, individual peak fit, unit inferred, read-out: Kd fitted using individual peak, Peak 1): 55 µM; Kd ([5]; 5 μM BCL6, individual peak fit, unit inferred, read-out: Kd fitted using individual peak, Peak 2): 53 µM; Kd ([5]; 5 μM BCL6, individual peak fit, unit inferred, read-out: Kd fitted using individual peak, Peak 3): 78 µM; Kd ([5]; 5 μM BCL6, individual peak fit, unit inferred, read-out: Kd fitted using individual peak, Peak 4): 56 µM; Kd ([5]; 5 μM protein, peak 3, read-out: Kd at 5 μM protein): 70 µM; Kd ([5]; 25 μM protein, peak 3, read-out: Kd at 25 μM protein): 58 µM; Kd ([5]; 35 μM protein, peak 3, read-out: Kd at 35 μM protein): 71 µM; Kd [5, 11]: 51 µM; Kd ([5]; ligand concentration increasing to 500 μM, no solubility limit, read-out: Kd, data set B): 68 µM; Kd of data set A relative to data set B ([5]; limited solubility mimic versus full concentration series): around 10 fold; Kd ([5]; simplified graphical presentation, unit inferred, read-out: KD, curve fitting using calculated bound ligand concentration [PL]): 57 µM; Kd ([5]; single experiment, 5 μM BCL6, ligand 50-500 μM, four aromatic peaks, global Kd fitting, read-out: Kd, global (shared) fit): 54 µM; Ki [6]: 50 µM
N#CCCCN1C(=O)COc2ccc(Cl)cc21 [CCT228155] | 1640 | 3 | 2.2 | 0.8 | 798 | 
Cc1ccc(N2CC(=O)NC2=O)cc1 [CCT010354] | 240 | 4.9 | 2 | 2.9 | 122 | Ki [4]: 294 µM; Kd [3, 10]: 156 µM
N#CCCCn1c(=O)oc2ccc(Cl)cc21 [CCT242918] |  | 1.6 | 1.3 | 0.3 |  | 
O=CN1CCN(Cc2cccc(Cl)c2)CC1 [CCT240121] |  | 3.8 | 3.3 | 0.4 |  | 
COc1cc2c(cc1OC)C(c1cccc(O)c1)CC(=O)N2 (centres unmarked) [CCT242858] | 1370 | 2.5 | 2.1 | 0.5 | 1200 | 
CCOc1cccc(C2CC(=O)NC3=C2C(=O)CCC3)c1 (centres unmarked) [CCT228041] |  | 1.6 | 1.5 | 0.1 |  | 
O=CN1CCN(Cc2c(F)cccc2Cl)CC1 [CCT240107] |  | 1.6 | 1.5 | 0.1 |  | 
CC(=O)Nc1cc2c(cc1C(=O)C(C)C)OCCO2 [CCT242848] | > 3000 | 3.8 | 2.5 | 1.2 | 532 | 

Now from value to compound, other results behind:

IC50 [1] [µM] | average R2, compound at 50 μM [2] | average R2, compound at 200 μM [2] | average R2, differences [2] | Kd [3, 9] [µM] | Compound | further results
> 3000 | 2 | 1.5 | 0.5 | 638 | Nc1ccc(C(=O)NCC2COc3ccccc3O2)cc1 (centres unmarked) [CCT240545] | 
 | 1.5 | 1.3 | 0.2 |  | COc1ccc(C(=O)N2CCN(c3ccccn3)CC2)cc1 [CCT240246] | 
 | 1.6 | 1.4 | 0.2 |  | O=C(c1ccc(F)cc1)N1CCN(c2ccccc2)CC1 [CCT240195] | 
 | 1.2 | 1.1 | 0.1 |  | CC(=O)N1CCN(S(=O)(=O)c2ccc(C(C)C)cc2)CC1 [CCT240867] | 
780 | 3.6 | 2.4 | 1.2 | 532 | CCOc1ccc(C2CNC(=O)C2)cc1 (centres unmarked) [CCT239822] | 
 | 1.5 | 1.4 | 0.1 |  | CNC(=O)c1nc(-c2ccccc2)n(-c2ccccc2)n1 [CCT226703] | 
